The values below come from patent publication US11390592B2, “Method for producing the crystalline form of modification a of calcobutrol” (BAYER PHARMA AKTIENGESELLSCHAFT, priority 2016, dated 2022).

Common to all, as to type: physicochemical
Data set [1] in a line: Hygroscopic properties: exposure to ambient air, water content by Karl-Fischer titration. The conditions noted are these: ca. 20° C., ca. 60% rel. humidity. Here is the method:
The hygroscopic properties of three different samples of Calcobutrol were determined, one sample was prepared by the method described in Inorganic Chemistry 1997, 36, 6086-6093 (Example 5), one sample was prepared by the method described in WO2011/054827A1 (Example 6), and one sample was prepared by the method according to the present invention (Example 2).
2 g of each sample were exposed to ambient air (ca. 20° C., ca. 60% rel. humidity). The water content was measured by means of Karl-Fischer-Titration immediately after initial exposure (t=0), three hours (t=3 h), seven hours (t=7 h), and thirty one hours (t=31 h) after initial exposure.

The nature of data set [2]: Storage stability and hygroscopicity of the polymorphic forms. Particulars: solid.
A short description of data set [3]: Solubility in water of the polymorphic modifications.

Consider `O=C([O-])CN1CCN(CC(=O)[O-])CCN(C(CO)C(O)CO)CCN(CC(=O)O)CC1.[Ca+2]` (stereo not drawn) [Modification A, calcium complex of dihydroxy-hydroxy-methylpropyl-tetraazacyclododecane-triacetic acid (calcobutrol)], for which the “weight-% water t = 0” value in data set [1] (2 g exposed to ambient air, immediately after initial exposure) was found to be 3.0%. Also, in data set [1] (ambient air, seven hours after initial exposure), the “weight-% water t = 7 h” value is 4.3%. The “weight-% water t = 31 h” value in data set [1] (ambient air, thirty one hours after initial exposure) was determined as 4.3%. The “weight-% water t = 3 h” value in data set [1] (ambient air, three hours after initial exposure) is recorded as 4.5%. Besides, the storage stability result in data set [2] is reported as “good storage stability”; in data set [2] (listed as calcobutrol of modification A), “storage-stable”. In addition, the Solubility in water in data set [3] was >500 mg/mL. The “solubility in water (appearance)” value in data set [3] was “colourlessly soluble in water”.
As for `O=C([O-])CN1CCN(CC(=O)[O-])CCN(C(CO)C(O)CO)CCN(CC(=O)O)CC1.[Ca+2]` (stereo not drawn) [Modification B, calcium complex of dihydroxy-hydroxy-methylpropyl-tetraazacyclododecane-triacetic acid (calcobutrol)], in data set [2], the hygroscopicity result is “to a large extent tend to be hygroscopic”.
